Assay results from PubChem BioAssay AID179 (DTP/NCI, 2004).
Calls of active or inactive are those of the source.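 The calls were made as follows: active = compounds giving half or more protection of infected cells from virus-caused growth loss, again on retest; inactive = the rest.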

System: CEM cells HIV-1 protection, formazan growth assay
Assay: NCI AIDS Antiviral Assay
Conditions: for IC50: measured here: growth of uninfected CEM cells
Procedure, shortened: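 Screen of anti-HIV-1 activity in human CEM cells using a formazan-based growth measurement at five drug concentrations. Hits with 50% or greater protection were repeated, and confirmation required reproducible complete protection.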

SMILES	EC50 [µM]	IC50 [µM]	outcome
CC(=O)NCCc1c[nH]c2ccc(Cl)cc12	> 200	195	
O=C1CCC2=C1C[C@@H]1CCCO[C@@H]1O2			inactive
CN(C)C(=S)NC(=S)Nc1ccc2ccccc2c1			inactive
COc1ccc(-c2cc(C(=O)Nc3cc(C(F)(F)F)cc(C(F)(F)F)c3)c3ccccc3n2)cc1	> 14.8	> 14.8	
CCCC[C@@H](C)/C=C1\CN2CCC[C@H]2[C@@](C)(O)[C@@H]1O	> 200	75.9	
O=C(O)c1ccc(-c2ccc(-c3cc(=S)sc(=O)[nH]3)cc2)cc1	> 263	89.1	
COc1ccc(N2C(=O)C3CC4=CC(=O)C[C@H]4[C@H]32)cc1 (stereo partly specified)	> 200	151	
CCCCC1OCCOC1C1COCCO1 (stereo unspecified)	> 195	> 195	
O=C(Cc1ccccc1)NN1C(=O)C(Cl)C1c1ccccc1Cl (stereo unspecified)	> 28.8	> 28.8	
O=C1C2=Cc3ccccc3OC2(O)Oc2ccccc21 (stereo unspecified)	> 200	23.4	
CC/C(Cl)=N\OC(=O)Nc1ccccc1OC(F)(F)F	> 20	3.16	
COc1ccc2cc3[n+](cc2c1O)CCc1cc2c(cc1-3)OCO2	> 347	6.03	
Cc1c(C)c(C)c(-n2[nH]c(=O)n(C)c2=O)c(C)c1C	> 200	> 200	
COc1cccc(CCn2c(N)c(-c3cc(Cl)cc(Cl)c3)c3ccc([N+](=O)[O-])cc3c2=O)c1	> 200	3.39	
CN(c1ccccc1Cl)S(=O)(=O)c1ccc([N+](=O)[O-])cc1	> 200	> 200	
O=Cc1ccccc1OCCC[P+](c1ccccc1)(c1ccccc1)c1ccccc1	> 200	2.51	
CS(=O)(=O)N(N(CCCl)S(=O)(=O)c1ccccc1)S(C)(=O)=O	> 126	79.4	
CC1=C(C(=O)Nc2cc(=O)n(C)c(=O)n2C)C(c2ccc([N+](=O)[O-])cc2)C(C(=O)Nc2cc(=O)n(C)c(=O)n2C)=C(C)N1	> 8.71	> 8.71	

SMILES	EC50 [µM]	IC50 [µM]	outcome
N#Cc1nc(CCCCCN2C(=O)c3ccccc3C2=O)oc1N	> 200	> 200	
NC(=O)N/N=C1\CCCCc2ccccc21	> 200	> 200	
CC1(O)C=CC(=O)C=C1	> 2000	3.47	
CCCCCCCCCCCc1c2oc3ccc([N+](=O)[O-])cc3nc-2cc(Nc2cc([N+](=O)[O-])ccc2O)c1=O	> 3.31	> 3.31	
O=C(CNC1=NCCN1)Nc1ccc(NC(=O)c2ccc(C(=O)Nc3ccc(NC(=O)CNC4=NCCN4)cc3)cc2)cc1	24	> 200	
COCn1c(C(=O)c2ccccc2)c(C)c(=O)[nH]c1=O	70.8	> 200	
COC(=O)C1=CCON(c2ccccc2)C1c1ccccc1 (stereo unspecified)	> 45.7		
Cc1ncc([N+](=O)[O-])n1CCn1ccnc1[N+](=O)[O-]	> 200	> 200	
C=CN1CCCC1=O			inactive
N.N.N.N.N.N#Cc1nn[n-]n1.[Cl-].[Co+3]	> 813	> 813	
COc1cc2c(cc1OC)C(CC1=C(c3ccccc3)CN3CCc4cc(OC)c(OC)cc4C3C1)NCC2 (stereo unspecified)			inactive
COc1ccc(C2=NOC(N)(c3ccc(OC)cc3)C2)cc1 (stereo unspecified)	> 200	> 200	
CCCCN(CCCC)CCCCNc1c(C)cnc2cc(Cl)ccc12	> 26.9	9.33	
C/C(=C\C(=O)c1ccc(Sc2ccccc2)cc1)c1ccc(Sc2ccccc2)cc1	> 200	102	
NS(=O)(=O)c1ccc(CNC(=O)c2ccccc2SC(=O)Oc2ccc([N+](=O)[O-])cc2)cc1	1.17	36.3	
O=[N+]([O-])c1ccc2c(c1)C1=C(CO2)Cc2ccccc2O1			inactive
CC(=O)c1cn(-c2ccc(Cl)cc2)c(=O)c2c(N)n[nH]c12	166	> 200	
CC(C)C1CN1CC(O)Cn1ccnc1[N+](=O)[O-] (stereo unspecified)	> 200	> 200	
